{"source": "paper PMC9501633", "about": "“Synthesis, Characterisation and Mechanism of Action of Anticancer 3-Fluoroazetidin-2-ones” (Pharmaceuticals, 2022)", "key": {"[1]": {"system": "purified bovine brain tubulin", "experiment": "Tubulin polymerisation assay (turbidimetric, 340 nm)", "type": "biochemical", "procedure": "Tubulin polymerisation was investigated using a turbidimetric assay which determines the light scattering by microtubules (absorbance at 340 nm) that is proportional to the microtubule polymer concentration.\nTubulin polymerisation was monitored with purified bovine tubulin using the BK006 kit supplied by Cytoskeleton Inc. (Denver, CO, USA), carried out following the manufacturer’s instructions with the standard assay conditions. Purified (>99%) bovine brain tubulin (3 mg/mL) in a buffer containing PIPES (80 mM, pH 6.9), EGTA (0.5 mM), MgCl2 (2 mM), GTP (1 mM) and glycerol (10%) was incubated at 37 °C in the presence of either vehicle (2% (v/v) ddH2O) or paclitaxel (10 µM), CA-4 (10 μM) or 33 (10 and 30 µM). The effect on tubulin assembly was monitored turbidimetrically at 340 nm in a Spectramax 340 PC spectrophotometer (Molecular Devices, Sunnyvale, CA, USA), with the light scattered depending on the concentration of polymerised microtubules formed. The absorbance was measured at 30 s intervals for 60 min.\nFigure 7 Effect of β-lactam compound 33 (10 and 30 µM) and paclitaxel (10 µM) on in vitro tubulin polymerisation. Purified bovine tubulin and GTP were mixed in a 96-well plate. Compounds were added and the reaction was started by warming the solution from 4 to 37 °C. Ethanol (1% v/v) was used as a vehicle control. The effect on tubulin assembly was monitored in a Spectramax 340PC spectrophotometer at 340 nm at 30 s intervals for 30 min at 37 °C. […] Each experiment was performed in duplicate."}, "[2]": {"experiment": "Stability under degradation conditions (HPLC)", "type": "physicochemical", "procedure": "The β-lactam ring is known to undergo hydrolysis/degradation depending on the substituent type on the ring. For example, degradation of monocyclic β-lactam antibiotic aztreonam increased with elevated humidity, temperature and acidic pH buffer. Ezetimibe, a monocyclic β-lactam drug used to reduce blood cholesterol, undergoes degradation and hydrolysis more rapidly in neutral and basic pH conditions than in acidic pH [71]. The stability of representative compounds 33 and 39 was also determined at pH 4, pH 7.4 (plasma) and pH 9 (intestine) by HPLC. […] The electron-withdrawing effect of the 3-fluoro substituent may result in decreasing stability of the β-lactam ring in response to acid hydrolysis.\nThe stability study for compounds 33 and 39 was performed using analytical HPLC (Symmetry column (C18, […], 4.6 × 150 mm), dual wavelength absorbance detector (Waters 2487), binary HPLC pump (Waters 1525) and autosampler (Waters 717 plus)) with mobile phase acetonitrile (70%)/water (30%), flow rate 1 mL/min over 15 min and detection at λ 254 nm. Stock solutions of compounds 33 and 39 (1 mg/mL in mobile phase) were used. Dilutions of 0.5 mg/mL, 0.25 mg/mL, 0.125 mg/mL, 0.0625 mg/mL, 0.03125 mg/mL, 0.015625 mg/mL and 0.0078 mg/mL were prepared for the calibration curve. (i) Stability of 33 and 39 in phosphate buffers: The phosphate buffers were prepared in accordance with the British Pharmacopoeia 2020 at pH values 4, 7.4 and 9. Stock solution, 300 µL (1 mg/mL ACN), was added to a vial containing buffer (9.7 mL), mixed and pre-heated to 37 °C. 1 mL of the solution was introduced into an HPLC vial. Samples (10 µL) were injected and analysed at time intervals of t = 0 min, 5 min, 30 min, 60 min and hourly for 24 h. The analysis was performed in triplicate. (ii) Thermal stability: Compounds 33 and 39 (1 mL stock solution) were each placed in a vial for 4 h at 60 °C on a heating block. The sample was then cooled, diluted with acetonitrile and analysed by HPLC. (iii) Photostability study: Compounds 33 and 39 (stock solution, 1 mL) were placed in a vial, exposed to UV light for 4 h and then analysed by HPLC. (iv) Stability in acidic conditions: HCl (0.1 M, 0.2 mL) was added to stock solutions (0.8 mL) of 33 and 39 in a vial. The vial was vortexed and retained at room temperature. A sample was neutralised with NaOH (0.1 M, 0.2 mL) each hour for 4 h and then analysed by HPLC. (v) Stability of 33 and 39 in basic (alkaline) conditions: NaOH (0.1 M, 0.2 mL) was added to stock solution (0.8 mL) in a vial. The vial was vortexed and retained at room temperature. A sample was neutralised with HCl (0.1 M, 0.2 mL) every hour for 4 h then analysed by HPLC. (vi) Stability of 33 and 39 in oxidising conditions: H2O2 (3%, 0.2 mL) was added to the stock solution (0.8 mL). The vial was vortexed to obtain a homogeneous mixture and retained at room temperature, and a sample was analysed by HPLC every hour for 4 h."}}, "data": [{"smiles": "COc1ccc(C2C(F)C(=O)N2c2cc(OC)c(OC)c(OC)c2)cc1F", "note": "(centres unmarked) [Compound 33, 3-Fluoro-4-(3-fluoro-4-methoxyphenyl)-1-(3,4,5-trimethoxyphenyl)azetidin-2-one]", "values": [{"measurement": "reduction in the Vmax of tubulin polymerisation compared to the vehicle", "setting": "[1]; 10 μM", "result": 3.5, "unit": "fold"}, {"measurement": "reduction in the Vmax of tubulin polymerisation compared to the vehicle", "setting": "[1]; 30 µM", "result": 4, "unit": "fold"}, {"measurement": "effect on tubulin polymerisation", "setting": "[1]; paclitaxel 10 µM, 33 10 and 30 µM", "result": "inhibited tubulin polymerisation"}, {"measurement": "remaining at 4 h, 0.8 mg/mL", "setting": "[2]; 0.1 M HCl added to stock solution, acidic (0.1 M HCl)", "result": 60, "unit": "%"}, {"measurement": "remaining at 4 h, 0.8 mg/mL", "setting": "[2]; 0.1 M NaOH added to stock solution, alkaline (0.1M NaOH)", "result": 65, "unit": "%"}, {"measurement": "remaining at 4 h, 0.8 mg/mL", "setting": "[2]; 3% H2O2 added to stock solution, oxidative (3% H2O2)", "result": 65, "unit": "%"}, {"measurement": "remaining at 4 h, 1 mg/mL", "setting": "[2]; stock solution in acetonitrile/water under UV light, UV light", "result": 88, "unit": "%"}, {"measurement": "remaining at 4 h, 1 mg/mL", "setting": "[2]; stock solution in acetonitrile/water, heated, heat (60 °C)", "result": 90, "unit": "%"}]}]}
